Some test systems named below: A549 NSCLC; HOP-92 NSCLC; K-562 leukemia; SF-268 CNS; SF-539 CNS; SK-MEL-5 melanoma; SNB-75 CNS; UACC-257 melanoma.
Common to all, as to test: inhibition of tumour cell growth, NCI panel, 48 h

Values joined by “and” are separate entries in the source; they are usually repeats but may differ in a detail not shown here. Equal values may be shown once.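 1) Cells in 96-well plates. 2) Compound, 48 h, 5 concentrations. 3) Linear interpolation between surrounding doses. 4) Unreached endpoint = highest concentration. GI50 = concentration required for 50% inhibition of growth. TGI marks complete inhibition of growth.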

Consider `CCN1C(=O)N(CC)C2C1NN=c1s/c(=C\c3ccc[nH]3)c(=O)n12` (centres undefined), for which the GI50 in the experiment with A549 NSCLC is 523 nM; in the experiment on HOP-92 NSCLC, 13400 nM; in the experiment with K-562 leukemia it was 245 nM; in the experiment on SF-268 CNS, 700 nM; in the experiment with SF-539 CNS, 246 nM; with SK-MEL-5 melanoma, 309 nM. For the same molecule, the figures for the GI50 in the experiment on SNB-75 CNS and in the experiment with UACC-257 melanoma were 140 nM and above 100000 nM, respectively. For the same molecule, the TGI is above 100000 nM in the experiment with A549 NSCLC; above 100000 nM in the experiment on HOP-92 NSCLC; above 100000 nM with K-562 leukemia; above 100000 nM in the experiment with SF-268 CNS; 1050 nM with SF-539 CNS; above 41500 nM in the experiment with SK-MEL-5 melanoma. Besides, the TGI was 598 nM with SNB-75 CNS and above 100000 nM in the experiment on UACC-257 melanoma.
With `O=C(N/C(=C\c1cc(Cl)ccc1Cl)c1nc2ccc(Cl)cc2[nH]1)c1ccccc1`, the TGI in the experiment with A549 NSCLC amounted to 38100 nM; in the experiment on HOP-92 NSCLC, 24400 nM; in the experiment with K-562 leukemia it was 41100 nM; in the experiment on SF-268 CNS, 28100 nM; with SF-539 CNS, 35100 nM; in the experiment on SK-MEL-5 melanoma it was 25900 nM. The TGI in the experiment on SNB-75 CNS was 35200 nM; in the experiment on UACC-257 melanoma, 28300 nM.
For `Cc1cccc2c(Nc3ccc(NS(C)(=O)=O)cc3)c3ccc([N+](=O)[O-])cc3nc12`, the GI50 is 128 nM in the experiment with A549 NSCLC; 345 nM with HOP-92 NSCLC; 2040 nM in the experiment on K-562 leukemia; 355 nM in the experiment with SF-268 CNS; 1070 nM in the experiment on SF-539 CNS; 487 nM in the experiment on SK-MEL-5 melanoma. Moreover, the GI50 in the experiment with SNB-75 CNS is 1120 nM; in the experiment with UACC-257 melanoma, 1530 nM. The TGI in the experiment on A549 NSCLC came out at 3240 nM; in the experiment with HOP-92 NSCLC it was 2470 nM; in the experiment with K-562 leukemia, 14000 nM; with SF-268 CNS, 4380 nM; in the experiment with SF-539 CNS, 11400 nM; with SK-MEL-5 melanoma, 1990 nM. For the same molecule, the TGI was 5930 nM in the experiment on SNB-75 CNS and 4600 nM in the experiment on UACC-257 melanoma.
For the molecule `CC1(C)CC2=C(Sc3ccccc3N2)C(=O)C1C(=O)C(=O)Nc1cc(Cl)ccc1Cl` (centres undefined), the TGI with A549 NSCLC, in the experiment on HOP-92 NSCLC, in the experiment with K-562 leukemia, in the experiment on SF-268 CNS, with SF-539 CNS and with SK-MEL-5 melanoma was above 100000 nM each time. Further, the TGI in the experiment with SNB-75 CNS and with UACC-257 melanoma was above 100000 nM throughout.
In the case of `C=CCn1c(=O)c2cnc(Nc3ccc(N4CCN(C)CC4)cc3)nc2n1-c1cccc(C(C)(C)O)n1`, the GI50 with A549 NSCLC was 1140 nM and 1470 nM; with HOP-92 NSCLC, 131 nM and 221 nM; with K-562 leukemia it was 315 nM and 282 nM; in the experiment on SF-268 CNS, 1490 nM and 1690 nM; in the experiment on SF-539 CNS, 161 nM and 287 nM; in the experiment with SK-MEL-5 melanoma, 231 nM and 442 nM. The GI50 in the experiment on SNB-75 CNS was 1440 nM and 717 nM; with UACC-257 melanoma, 675 nM and > 4690 nM. The TGI in the experiment on A549 NSCLC is 11400 nM and > 10000 nM; in the experiment with HOP-92 NSCLC, 3920 nM and 2380 nM; with K-562 leukemia it was 17800 nM and > 7640 nM; with SF-268 CNS it was 51900 nM and > 10000 nM; in the experiment on SF-539 CNS, 2300 nM and 1150 nM; with SK-MEL-5 melanoma it was 1040 nM and 7760 nM. Besides, the TGI was 8680 nM and 6370 nM in the experiment on SNB-75 CNS; 18700 nM and > 10000 nM in the experiment with UACC-257 melanoma.
On to `C[C@@H]1COCCN1c1cc(-c2ccnn2C)c2ccnc(-c3ccn[nH]3)c2n1`, for which the GI50 in the experiment on A549 NSCLC is 62.3 nM and 190 nM; in the experiment on HOP-92 NSCLC, 81.5 nM and 175 nM; in the experiment with K-562 leukemia, 84.4 nM and 384 nM; with SF-268 CNS, 238 nM and 449 nM; in the experiment with SF-539 CNS, 70.4 nM and 142 nM; with SK-MEL-5 melanoma, 222 nM and 286 nM. The GI50 in the experiment on SNB-75 CNS was 87 nM and 219 nM; with UACC-257 melanoma it was 264 nM and 721 nM. Further, the TGI in the experiment on HOP-92 NSCLC was 651 nM and 3080 nM; in the experiment on K-562 leukemia it was above 100000 nM; in the experiment on SF-539 CNS it was 547 nM and 1230 nM; in the experiment with SK-MEL-5 melanoma, 766 nM and 2520 nM; with SNB-75 CNS, 596 nM and 1800 nM; with UACC-257 melanoma it was 2810 nM and 6900 nM.
As to `Brc1cccc(-c2cc(-c3ccc4nccnc4c3)[nH]n2)c1`, the GI50 with A549 NSCLC was 860 nM; in the experiment on HOP-92 NSCLC, 4540 nM; in the experiment on K-562 leukemia, 215 nM; in the experiment on SF-268 CNS, 3680 nM; with SF-539 CNS, 764 nM; in the experiment on SK-MEL-5 melanoma it was 783 nM. Further, in the experiment on SNB-75 CNS, the GI50 is 674 nM. The TGI in the experiment on A549 NSCLC was above 250000 nM; with HOP-92 NSCLC it was above 250000 nM; with K-562 leukemia it was above 250000 nM; in the experiment with SF-268 CNS, above 250000 nM; in the experiment with SF-539 CNS it was 3280 nM; with SK-MEL-5 melanoma, 11700 nM. The TGI with SNB-75 CNS is 2380 nM; in the experiment on UACC-257 melanoma, above 250000 nM.
As for `OCc1ccc(N2CCCC2)cc1Cl`, the GI50 in the experiment with A549 NSCLC is 23200 nM; in the experiment with HOP-92 NSCLC it was 2220 nM; in the experiment with K-562 leukemia, 8180 nM; in the experiment with SF-268 CNS, above 61300 nM; in the experiment on SF-539 CNS, above 58700 nM; with SK-MEL-5 melanoma, 18700 nM. For the same molecule, the results for the GI50 in the experiment with SNB-75 CNS and in the experiment with UACC-257 melanoma were 24500 nM and 338 nM, respectively. In addition, the TGI with A549 NSCLC was above 100000 nM; with HOP-92 NSCLC, 24200 nM; in the experiment on K-562 leukemia, above 100000 nM; in the experiment with SF-268 CNS, above 100000 nM; with SF-539 CNS it was above 100000 nM; with SK-MEL-5 melanoma, above 75500 nM. Besides, the TGI with SNB-75 CNS was above 100000 nM; in the experiment with UACC-257 melanoma, 1280 nM.

The values above are taken from PubChem BioAssay (NCI).
